Test [1] concerns Rattus norvegicus. As to the kind of experiment: Urine volume was measured after 4 hours following oral compound dose of 10 mg/kg in rats deprived of food or water (water-loaded 30 mL/kg + 0.4 ug/kg of AVP intraperitoneal). In kind it is functional.
For test [2], the system named is Rattus norvegicus. Description: Urine volume was measured after 4 hours following oral compound dose of 10 mg/kg in a volume of 10 mL/kg (20% dimethylsulfoxide in 2.5% preboiled starch) in rats deprived with food or water. In kind it is functional.
The target of test [3] is T1, Vasopressin V2 receptor (Homo sapiens, UniProt P30518). Description: In vitro binding affinity to human V2 receptor.
Test [4] has as its system Rattus norvegicus. As to the kind of experiment: Urine volume was measured after 4 hours following oral compound dose of 3 mg/kg in rats deprived with food or water. It is filed as functional.
In test [5] the target is T2, Vasopressin V1a receptor (Homo sapiens, UniProt P37288). As to the kind of experiment: In vitro binding affinity to human V1a receptor.
Target sequence in this assay (P37288 whole entry): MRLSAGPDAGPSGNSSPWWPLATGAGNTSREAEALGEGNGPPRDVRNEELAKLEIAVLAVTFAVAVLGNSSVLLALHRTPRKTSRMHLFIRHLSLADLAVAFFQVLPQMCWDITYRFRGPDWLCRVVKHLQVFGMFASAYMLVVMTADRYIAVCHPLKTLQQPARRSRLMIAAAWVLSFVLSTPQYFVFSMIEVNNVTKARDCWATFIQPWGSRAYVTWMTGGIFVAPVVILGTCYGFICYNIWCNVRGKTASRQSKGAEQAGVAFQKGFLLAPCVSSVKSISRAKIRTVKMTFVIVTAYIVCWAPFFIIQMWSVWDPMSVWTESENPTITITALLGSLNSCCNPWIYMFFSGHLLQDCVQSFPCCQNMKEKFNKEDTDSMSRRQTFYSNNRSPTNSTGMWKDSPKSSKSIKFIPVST
Test [6] deals with T3, Vasopressin V2 receptor (Rattus norvegicus, UniProt Q00788). Description: Binding affinity to rat V2 receptor.
The target of test [7] is T3, Vasopressin V2 receptor. As to the kind of experiment: In vitro for its binding affinity to rat V2 receptor.
For test [8], the target named is Vasopressin V1a receptor (Rattus norvegicus, UniProt P30560). As to the kind of experiment: In vitro binding affinity for rat V1a receptor.
The target of test [9] is T1, Vasopressin V2 receptor. As to the kind of experiment: In vitro inhibition against human V2 receptor at 10 uM.
For test [10], the target named is T2, Vasopressin V1a receptor. Description: In vitro inhibition against human V1a receptor at 10 uM.
Target sequence in this assay (P37288 whole entry, looked up): as the sequence (P37288 whole entry) above
Test [11] deals with Vasopressin V1a receptor (Rattus norvegicus) (UniProt P30560). As to the kind of experiment: In vitro inhibition against rat V1a receptor at 10 uM.

We go through 19 compounds from ChEMBL document CHEMBL1133322, “The synthesis and vasopressin (AVP) antagonist activity of a novel series of N-aroyl-2,4,5,6-tetrahydropyrazolo[3,4-d]thieno[3,2-b]azepines” (Bioorg Med Chem Lett, 2000).

A word on the IC50: it is the concentration that gives 50% inhibition. Lower therefore signals greater potency in that assay. One may read the inhibition as the change of the read-out against control, counted positive when it falls.

T1 sequence (P30518 whole entry): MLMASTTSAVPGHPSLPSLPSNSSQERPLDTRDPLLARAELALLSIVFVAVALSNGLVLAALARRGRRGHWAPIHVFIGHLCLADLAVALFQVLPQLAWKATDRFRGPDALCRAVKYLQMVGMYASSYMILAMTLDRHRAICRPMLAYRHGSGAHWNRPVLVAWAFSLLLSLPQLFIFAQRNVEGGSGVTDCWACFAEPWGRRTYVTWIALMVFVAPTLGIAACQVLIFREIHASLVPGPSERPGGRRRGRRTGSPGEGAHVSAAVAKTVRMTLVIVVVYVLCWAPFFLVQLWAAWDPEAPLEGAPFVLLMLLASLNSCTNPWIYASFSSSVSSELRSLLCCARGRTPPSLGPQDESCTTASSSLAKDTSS
Sequence of Vasopressin V1a receptor (Rattus norvegicus, UniProt P30560) (P30560 whole entry): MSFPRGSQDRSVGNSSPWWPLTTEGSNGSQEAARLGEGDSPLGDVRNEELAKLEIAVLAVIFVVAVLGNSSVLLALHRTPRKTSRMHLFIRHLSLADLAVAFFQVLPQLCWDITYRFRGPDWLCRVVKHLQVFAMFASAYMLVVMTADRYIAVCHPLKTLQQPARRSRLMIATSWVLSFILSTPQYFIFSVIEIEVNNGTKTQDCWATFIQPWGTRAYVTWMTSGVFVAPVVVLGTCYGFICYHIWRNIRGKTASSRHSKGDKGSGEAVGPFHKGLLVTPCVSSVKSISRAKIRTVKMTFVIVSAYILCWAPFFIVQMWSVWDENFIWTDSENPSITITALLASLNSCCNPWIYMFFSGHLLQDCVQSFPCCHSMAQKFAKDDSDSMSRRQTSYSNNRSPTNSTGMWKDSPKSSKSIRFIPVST
T3 sequence (Q00788 whole entry): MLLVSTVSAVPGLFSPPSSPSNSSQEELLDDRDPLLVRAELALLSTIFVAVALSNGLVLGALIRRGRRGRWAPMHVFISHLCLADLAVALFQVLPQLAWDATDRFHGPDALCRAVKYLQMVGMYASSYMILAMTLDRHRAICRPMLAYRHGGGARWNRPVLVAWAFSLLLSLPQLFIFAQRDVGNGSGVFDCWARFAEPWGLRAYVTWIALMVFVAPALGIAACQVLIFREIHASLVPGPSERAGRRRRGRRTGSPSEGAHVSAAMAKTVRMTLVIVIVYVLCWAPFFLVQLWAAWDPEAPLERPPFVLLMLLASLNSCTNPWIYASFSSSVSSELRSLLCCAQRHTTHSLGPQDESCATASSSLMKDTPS
Sequence of Vasopressin V1a receptor (Rattus norvegicus) (P30560 whole entry, looked up): as the sequence (P30560 whole entry) above

With `O=C(Nc1ccc(C(=O)N2Cc3cccn3Cc3ccccc32)cc1)c1ccc(Cl)cc1Cl`, the Urine volume in test [1] amounted to 16 ml 4hr-1.

Consider `O=C(Nc1ccc(C(=O)N2CCc3c[nH]nc3-c3sccc32)c(Cl)c1)c1ccccc1-c1ccccc1`, for which the Urine volume in test [2] amounted to 27 ml 4hr-1; in [4], 22 ml 4hr-1. Further, the IC50 in test [3] was determined as 1.7 nM.

For the compound `O=C(Nc1ccc(C(=O)N2CCCCc3sccc32)c(Cl)c1)c1ccccc1-c1ccccc1`, the values for the IC50 in test [5] and in test [6] were 86 nM and 1.2 nM, respectively. The compound further had a Urine volume in [2] of 19 ml 4hr-1.

On to `Cn1cc2c(n1)-c1sccc1N(C(=O)c1ccc(NC(=O)C3CCCCC3)cc1)CC2`, for which the Urine volume in test [1] was determined as 9 ml 4hr-1.

`Cc1ccc(F)cc1C(=O)Nc1ccc(C(=O)N2CCc3c[nH]nc3-c3sccc32)cc1`: the Urine volume in [1] was found to be 18 ml 4hr-1. Further, the IC50 in test [3] was found to be 71 nM; in [7] it was 69 nM.

With `Cc1ccccc1C(=O)Nc1ccc(C(=O)N2CCc3c[nH]nc3-c3sccc32)cc1`, the IC50 in [5] came to 240 nM; in test [8], 2100 nM; in test [3] it was 130 nM; in [7], 120 nM. Besides, the Urine volume in [1] came out at 21 ml 4hr-1.

In the case of `Cc1ccc(F)cc1C(=O)Nc1ccc(C(=O)N2CCCCc3sccc32)c(Cl)c1`, the Urine volume in [1] is recorded as 4 ml 4hr-1.

With `O=C(Nc1ccc(C(=O)N2CCCCc3sc(Cl)cc32)cc1)c1ccccc1-c1ccccc1`, the figures for the IC50 in [5] and in test [6] were 82 nM and 3.2 nM, respectively. This compound displayed a Urine volume in test [2] of 20 ml 4hr-1.

On to `Cn1cc2c(n1)-c1sccc1N(C(=O)c1ccc(NC(=O)c3ccc(Cl)cc3Cl)cc1)CC2`, for which the IC50 is 4100 nM in [5], 38 nM in test [6], 2100 nM in test [8] and 150 nM in test [3]. The Urine volume in test [1] is on record as 6 ml 4hr-1.

As for `Cc1ccc(F)cc1C(=O)Nc1ccc(C(=O)N2Cc3cccn3Cc3ccccc32)c(Cl)c1` [LIXIVAPTAN], the Urine volume in [2] amounted to 22 ml 4hr-1; in [4] it was 20 ml 4hr-1.

In [2], `O=C(Nc1ccc(C(=O)N2CCc3c[nH]nc3-c3sccc32)cc1)c1ccc(F)cc1Cl` registered a Urine volume of 15 ml 4hr-1. In addition, in test [3], the IC50 was found to be 140 nM.

On to `O=C(Nc1ccc(C(=O)N2Cc3cccn3Cc3ccccc32)cc1)c1ccccc1-c1ccccc1`, for which, in [2], the Urine volume is listed as 21 ml 4hr-1.

Turning to `Cc1ccccc1C(=O)Nc1ccc(C(=O)N2CCc3cn(C(=O)c4ccccc4C)nc3-c3sccc32)cc1`, the inhibition in [9] and in test [10] was 88% each time. The Urine volume in [1] is reported as 14 ml 4hr-1.

As to `O=C(Nc1ccc(C(=O)N2CCCCc3sc(Cl)cc32)c(Cl)c1)c1ccccc1-c1ccccc1`, the Urine volume in [2] is 22 ml 4hr-1.

In the case of `Cc1ccccc1C(=O)Nc1ccc(C(=O)N2CCc3cn(C)nc3-c3sccc32)cc1`, the IC50 in test [5] worked out at 1740 nM; in test [6], 24 nM; in test [8], 2010 nM; in test [3] it was 220 nM. The Urine volume in test [2] is 3 ml 4hr-1.

For the compound `O=C(Nc1ccc(C(=O)N2CCCCc3sc(Cl)cc32)cc1)c1ccc(Cl)cc1Cl`, the Urine volume in [1] is 8 ml 4hr-1.

On to `Cc1ccc(F)cc1C(=O)Nc1ccc(C(=O)N2CCc3c[nH]nc3-c3sccc32)c(Cl)c1`, for which the Urine volume in test [2] came out at 7 ml 4hr-1. In test [10], the inhibition amounted to 69%. Also, the results for the IC50 in [8] and in test [7] were 12400 nM and 6 nM, respectively.

Turning to `O=C(Nc1ccc(C(=O)N2Cc3cccn3Cc3ccccc32)c(Cl)c1)c1ccccc1-c1ccccc1`, the IC50 in test [5] came out at 370 nM; in [3] it was 2.7 nM. The Urine volume is recorded as 27 ml 4hr-1 in [2] and 20 ml 4hr-1 in [4].

As for `O=C(Nc1ccc(C(=O)N2CCc3c[nH]nc3-c3sccc32)c(Cl)c1)c1cc(Cl)ccc1F`, the Urine volume in [2] stood at 12 ml 4hr-1. In test [11], the inhibition turned out to be 18%.
